Test system: ob/ob mice
Experiment: ob/ob mice: plasma parameters, food consumption, marker gene mRNA
Assay type: in vivo, mouse
Details: ob/ob mice, 25 mg/kg s.c. two times per week, 6 weeks
Procedure, shortened: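 Male C57Bl/6J ob/ob mice received oligomeric compound or control at 25 mg/kg s.c. twice weekly, for 4 weeks on a 10-15% fat diet or for 6 weeks on high-fat diet. Plasma glucose and insulin were measured at 0, 2 and 4 weeks; i.p. glucose/insulin tolerance tests were run; serum lipids, liver triglycerides and histology were assessed, with liver, BAT and WAT mRNA quantified by real-time PCR.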

CTAGTGGTCCTAAACATTTCAC (chemistry not given here) [ISIS 327878, uniform 2′-MOE PS; targets mir-203]
plasma glucose levels (fed): reduced beginning at approximately four weeks after the start of treatment
